In PMC9953660, “Using ΔK280 TauRD Folding Reporter Cells to Screen TRKB Agonists as Alzheimer’s Disease Treatment Strategy” (Biomolecules, 2023):

How the values were obtained:
[1] = target: T1, TRKB extracellular domain (TRKB-ECD) (Homo sapiens, UniProt Q16620); assay: Tryptophan fluorescence quenching assay; settings: Pichia pastoris-expressed TRKB-ECD, 0–1000 nM, excitation 295 nm, emission 330 nm, room temperature; read-out: KD (TRKB-ECD binding affinity)
T1 construct: TRKB-ECD (marked in red, C^32-E^429, XP_016870240); His (C); made in house; host or cells: Pichia pastoris
Protocol: The interaction between the N-terminal extracellular domain of TRKB (TRKB-ECD) and 7,8-DHF (as positive control; [35]), ZN-015, VB-030 or VB-037 was evaluated with tryptophan fluorescence titration. TRKB-ECD-His protein was expressed in the Pichia expression system (Invitrogen) and purified as stated. Intrinsic tryptophan fluorescence spectra with titration of a different concentration of compounds (0–1000 nM) were recorded by fluorescence spectrophotometer F-7000 (Hitachi, Tokyo, Japan), with excitation wavelength 295 nm and emission wavelength in the range of 300–400 nm. The calculation of dissociation constant (KD) between the 7,8-DHF or ZN/VB compound and TRKB was described in a previous report.

[2] = Cell number / cell survival in induced ΔK280 TauRD-DsRed SH-SY5Y cells (high-content); assay type: cell-based, human; settings: human; induced SH-SY5Y cells expressing ΔK280 TauRD-DsRed for 6 days, 2–10 μM tested; read-out: IC50 cytotoxicity based on cell number
Protocol: (§1) ΔK280 TauRD-DsRed SH-SY5Y cells were plated in the presence of 10 μM retinoid acid (RA; Sigma-Aldrich) to promote neuronal differentiation. The next day, cells were added with congo red or ZN/VB compounds (2–10 μM) for 8 h pretreatment, followed by inducing ΔK280 TauRD-DsRed expression with doxycycline (2 μg/mL). On day 8, cell nuclei were stained with Hoechst 33342 (0.1 μg/mL; Thermo Scientific), and cell images acquired using ImageXpress Micro Confocal High-Content Imaging System (Molecular Devices, San Jose, CA, USA) with DAPI (4′,6-diamidino-2-phenylindole, for nuclei) and TRITC (tetramethylrhodamine, for DsRed) fluorescence filter sets. To detect ROS changes, 10 μM compound-treated cells were stained with Hoechst 33342 and 2′,7′-dichlorodihydrofluorescein diacetate (H2DCFDA, 10 μM) fluorescein (Invitrogen, Carlsbad, CA, USA), and cell images captured using DAPI and FITC (fluorescein isothiocyanate, for DCF) filters. For assessing differential neurite outgrowth, 10 μM compound-treated cells were fixed (paraformaldehyde, 4%), permeabilized (Triton X-100, 0.3%), and stained with class III β-tubulin (TUBB3, 1:1000) primary antibody (#802001, BioLegend, San Diego, CA, USA), followed by donkey anti-rabbit Alexa Fluor® 555 secondary antibody (1:1000; #A-31572, Invitrogen) and DAPI (0.1 μg/mL; Sigma-Aldrich) stains. The nuclei and neurite images were acquired with DAPI and TRITC fluorescence filters, respectively. All analyses of images were performed using MetaXpress software (Molecular Device).

[3] = target: T2, E. coli-expressed ΔK280 TauRD protein (Homo sapiens, UniProt P10636, DEL597-597); assay: Thioflavin T fluorescence ΔK280 TauRD aggregation assay; assay type: biochemical; settings: TauRD protein 20 μM, 48 h at 37 °C; read-out: EC50 inhibiting ΔK280 TauRD aggregation
T2 construct: TauRD (Q^244-E^372 of Tau, NP_005901) aggregation; N-terminal Met (N); made in house; host or cells: E. coli
Protocol: The anti-aggregation activity of congo red (positive control) and ZN/VB compounds (5–20 μM) was assessed using E. coli-expressed ΔK280 TauRD protein [33] and thioflavin T (Sigma-Aldrich) fluorescence assay. The trend of ΔK280 TauRD amyloid aggregate formation depicted with enhanced and red-shifted fluorescence was recorded by a FLx800 microplate fluorescence reader (BioTek Instruments), where the procedure was previously reported in detail.

[4] = tested on: ΔK280 TauRD-DsRed SH-SY5Y cells; assay: High-content neurite outgrowth analysis (TUBB3 stain); assay type: cell-based, human; settings: 10 μM
Protocol: as §1

[5] = MTT cell viability assay; assay type: cell-based; settings: human
Protocol: Human neuroblastoma SH-SY5Y cells with inducible ΔK280 TauRD-DsRed expression were maintained in DMEM/F-12 supplemented with fetal bovine serum (FBS, 10%) (Thermo Scientific, Waltham, MA, USA), penicillin/streptomycin (100 U/mL), selection antibiotics hygromycin (100 μg/mL) and blasticidin (5 μg/mL) (InvivoGen, San Diego, CA, USA), and 1.5 g/l sodium bicarbonate. Cells were cultured at 37 °C in a 5% CO2 atmosphere. The cell viability of ZN and VB compounds (concentration range: 0.1–100 μM) was evaluated by a 3-(4,5-dimethylthiazol-2-yl)-2,5-diphenyltetrazolium bromide (MTT; Sigma-Aldrich) colorimetric assay. The absorbance at 570 nm was recorded by a Multiskan™ GO Microplate Spectrophotometer (Thermo Scientific).

[6] = tested on: caspase-6; assay: Caspase-6 activity assay in cell lysates; assay type: cell-based, human; settings: uninduced = 100%, induced untreated 110.5%
Protocol: After being compounds-treated and RA-differentiated, cells were collected for caspase-1/6 and AChE activity measurements. Cells were lysed in lysis buffer with repeated freeze/thaw cycles and protein concentration in cell lysates quantitated. Types of substrates applied to detect each caspase’s activity were: YVAD-AFC for caspase-1 and VEID-AFC for caspase-6 (BioVision, Milpitas, CA, USA). The reaction mixtures were incubated for 1.5 h at 37 °C according to the manufacturer’s instructions. The fluorescence intensities with excitation/emission wavelengths at 400/505 nm were recorded by a FLx800 microplate fluorescence reader (BioTek Instruments). An AChE activity assay was performed according to the manufacturer’s instructions (Sigma-Aldrich), as described in the Ref. [28]. The mixture was incubated for 2–10 min at room temperature, and absorbance at 412 nm wavelength was measured by Multiskan™ GO Microplate Spectrophotometer (Thermo Scientific).

T2 sequence (P10636 with tags, fused parts or gaps isoform P10636-8 DEL280-280): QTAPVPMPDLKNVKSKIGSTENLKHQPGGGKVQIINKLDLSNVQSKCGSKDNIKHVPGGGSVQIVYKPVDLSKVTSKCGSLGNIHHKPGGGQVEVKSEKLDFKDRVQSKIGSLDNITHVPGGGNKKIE
T1 sequence (Q16620 32-429): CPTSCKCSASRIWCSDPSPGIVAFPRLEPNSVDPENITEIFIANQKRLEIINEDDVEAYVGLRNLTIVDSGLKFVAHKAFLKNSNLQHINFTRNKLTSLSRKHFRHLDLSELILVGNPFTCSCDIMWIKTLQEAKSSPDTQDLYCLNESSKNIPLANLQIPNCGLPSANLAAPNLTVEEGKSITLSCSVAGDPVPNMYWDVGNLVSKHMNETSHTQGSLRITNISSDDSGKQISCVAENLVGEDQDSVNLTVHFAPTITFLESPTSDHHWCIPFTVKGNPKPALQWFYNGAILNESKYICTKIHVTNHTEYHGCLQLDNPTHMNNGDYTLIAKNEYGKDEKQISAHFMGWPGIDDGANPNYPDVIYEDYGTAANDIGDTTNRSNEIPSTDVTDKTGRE

With O=C(/C=C/c1ccccc1O)c1c(O)c2ccccc2oc1=O [ZN-015, (E)-4-hydroxy-3-(3-(2-hydroxyphenyl)acryloyl)-2H-chromen-2-one] as the molecule, how does the Kd [1] read?
The Kd was 0.0122 ± 0.0094 µM.

What about the IC50 at 6 days [2] of the same molecule?
Its IC50 at 6 days is 16 µM.

What about the EC50 [3] of the same molecule?
Its EC50 is 13.2 µM.

What about the neurite branch ([4]; induced untreated 0.74) of the same molecule?
Its neurite branch is 0.92.

What about the neurite process ([4]; induced untreated 2.07) of the same molecule?
Its neurite process is 2.34.

What about the neurite length ([4]; induced untreated 30.6 μm) of the same molecule?
The neurite length was 40.7 μm.

What about the IC50 at 24 h [5] of the same molecule?
Its IC50 at 24 h is 77 µM.

And the caspase-6 activity [6]?
Its caspase-6 activity is 99.8%.
